Measurements taken from patent publication US20230158025A1 (UNIVERSITY OF UTAH RESEARCH FOUNDATION, priority 2020, published 2023).
Read-outs that look alike come from different tables or passages of the source.

Legend:
[1] = rat microsomal stability (RLM); conditions: microsomal stability half-life
recombinant human GALK1 = recombinant human GALK1 (Homo sapiens, UniProt P51570); assay: hGALK1 biochemical activity assay (Kinase-Glo Plus, ATP depletion)
Outline: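 Turnover is measured as ATP depletion by Kinase-Glo Plus luminescence after a 1 h room-temperature reaction. Compounds span 11 concentrations, 57.4 μM–0.97 nM, in final 20 mM HEPES pH 8.0 with 5 mM MgCl2. The substrate solution held 35 μM ATP; the added solution held 5 nM human or mouse GALK1 and 100 μM galactose.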

recombinant mouse GALK1 = recombinant mouse GALK1 (Mus musculus, UniProt Q9R0N0); assay: mGALK1 biochemical activity assay (Kinase-Glo Plus, ATP depletion)
Outline: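 Recombinant GALK1 (5 nM) with 100 μM galactose; GALK1 turnover read as ATP depletion by Kinase-Glo Plus luminescence. Reaction ran 1 h at room temperature before detection reagent was added.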

PAMPA permeability = conditions: PAMPA
[2] = aqueous kinetic solubility; conditions: aqueous kinetic solubility
[3] = Tables 2-15, 35 μM ATP, 100 μM galactose, 1 h, bracketed figure after some values (e.g. −1.2) is undefined and not reported, read-out: hGALK IC50
[4] = recombinant human GALK1, Kinase-Glo Plus ATP depletion, read-out: hGALK
[5] = Tables 2-15, 35 μM ATP, 100 μM galactose, 1 h, bracketed figure after some values is undefined and not reported, read-out: mGALK IC50
[6] = recombinant mouse GALK1, Kinase-Glo Plus ATP depletion, read-out: mGALK
[7] = recombinant human GALK1, Kinase-Glo Plus ATP depletion, bracketed figure in the cell, e.g. (−1.2), is not defined in the text shown, read-out: hGALK
[8] = recombinant mouse GALK1, Kinase-Glo Plus ATP depletion, bracketed figure in the cell, e.g. (−1.2), is not defined in the text shown, read-out: mGALK

Chain of recombinant human GALK1 (P51570 whole entry): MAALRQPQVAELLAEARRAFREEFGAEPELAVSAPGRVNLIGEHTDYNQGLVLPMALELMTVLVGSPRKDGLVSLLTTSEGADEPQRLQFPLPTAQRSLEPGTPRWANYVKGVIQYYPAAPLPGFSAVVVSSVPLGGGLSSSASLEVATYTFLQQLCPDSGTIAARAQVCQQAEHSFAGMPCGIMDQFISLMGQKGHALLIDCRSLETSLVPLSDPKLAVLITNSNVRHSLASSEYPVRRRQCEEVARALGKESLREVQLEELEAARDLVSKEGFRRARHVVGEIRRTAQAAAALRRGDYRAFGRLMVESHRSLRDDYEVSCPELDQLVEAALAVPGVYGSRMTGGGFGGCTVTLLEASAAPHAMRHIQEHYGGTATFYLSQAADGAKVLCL
Chain of recombinant mouse GALK1 (Q9R0N0 whole entry): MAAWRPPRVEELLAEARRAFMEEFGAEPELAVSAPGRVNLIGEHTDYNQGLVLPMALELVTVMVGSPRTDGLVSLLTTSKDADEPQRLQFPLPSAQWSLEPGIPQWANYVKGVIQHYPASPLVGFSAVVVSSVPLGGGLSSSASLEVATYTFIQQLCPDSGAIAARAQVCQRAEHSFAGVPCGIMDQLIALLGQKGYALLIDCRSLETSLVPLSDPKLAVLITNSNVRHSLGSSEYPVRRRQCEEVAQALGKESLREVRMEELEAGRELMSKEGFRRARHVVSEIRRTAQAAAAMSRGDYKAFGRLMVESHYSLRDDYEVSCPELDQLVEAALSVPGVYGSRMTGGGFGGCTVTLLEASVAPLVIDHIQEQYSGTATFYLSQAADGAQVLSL

Metab. Stabil. (m) [1] [m] | IC50 (recombinant human GALK1; [3]) [µM] | IC50 (recombinant human GALK1; [4]) [µM] | IC50 (recombinant mouse GALK1; [5]) [µM] | IC50 (recombinant mouse GALK1; [6]) [µM] | Perm. (1 × 10^−6 cm/sec) (PAMPA permeability) | Sol. [2] [µg/mL] | Metab. Stabil. (m) ([1]; minutes) | IC50 (recombinant human GALK1; [7]) [µM] | IC50 (recombinant mouse GALK1; [8]) [µM] | SMILES
3.416 | 4.85 | 4.85 | 7.69 | 7.69 | 615.7 1 × 10^−6 cm/sec | <1 |  |  |  | COC(=O)c1cccc(CNC(=O)C2=C(C)NC(Nc3nc4ccccc4o3)=NC2c2ccccc2Cl)c1 (centres unmarked) [Compound 224, methyl 3-((2-(benzo[d]oxazol-2-ylamino)-4-(2-chlorophenyl)-6-methyl-1,4-dihydropyrimidine-5-carboxamido)methyl)benzoate]
>30 | 3.43 |  | 10.9 | 10.9 | <1 1 × 10^−6 cm/sec | 47.0 |  |  |  | CC1=C(C(=O)NCc2ccc(C(=O)O)cc2)C(c2ccccc2Cl)N=C(Nc2nc3ccccc3o2)N1 (centres unmarked) [Compound 225, 4-((2-(benzo[d]oxazol-2-ylamino)-4-(2-chlorophenyl)-6-methyl-1,4-dihydropyrimidine-5-carboxamido)methyl)benzoic acid]
>30 |  | 7.69 |  | 19.3 | <1.3 1 × 10^−6 cm/sec | 60.6 |  |  |  | CC1=C(C(=O)NCc2cccc(C(=O)O)c2)C(c2ccccc2Cl)N=C(Nc2nc3ccccc3o2)N1 (centres unmarked) [Compound 226, 3-((2-(benzo[d]oxazol-2-ylamino)-4-(2-chlorophenyl)-6-methyl-1,4-dihydropyrimidine-5-carboxamido)methyl)benzoic acid]
6.574 |  | 4.85 | 12.2 | 12.2 | 868.8 1 × 10^−6 cm/sec | <1 |  |  |  | CC1=C(C(=O)NCc2cccc(CO)c2)C(c2ccccc2Cl)N=C(Nc2nc3ccccc3o2)N1 (centres unmarked) [Compound 227, 2-(benzo[d]oxazol-2-ylamino)-4-(2-chlorophenyl)-N-(3-(hydroxymethyl)benzyl)-6-methyl-1,4-dihydropyrimidine-5-carboxamide]
13.8241 | 6.85 |  | 15.3 | 15.3 | 867.3 1 × 10^−6 cm/sec | <1 |  |  |  | CC1=C(C(=O)NCc2ccc(CO)cc2)C(c2ccccc2Cl)N=C(Nc2nc3ccccc3o2)N1 (centres unmarked) [Compound 228, 2-(benzo[d]oxazol-2-ylamino)-4-(2-chlorophenyl)-N-(4-(hydroxymethyl)benzyl)-6-methyl-1,4-dihydropyrimidine-5-carboxamide]
5.0859 | 6.11 |  | 15.3 | 15.3 | 1362.3 1 × 10^−6 cm/sec | <1 |  |  |  | CC1=C(C(=O)NCc2ccccc2CO)C(c2ccccc2Cl)N=C(Nc2nc3ccccc3o2)N1 (centres unmarked) [Compound 229, 2-(benzo[d]oxazol-2-ylamino)-4-(2-chlorophenyl)-N-(2-(hydroxymethyl)benzyl)-6-methyl-1,4-dihydropyrimidine-5-carboxamide]
5.621 | 3.06 | 3.06 | 4.32 | 4.32 | 866.5 1 × 10^−6 cm/sec | 46.1 |  |  |  | CC1=C(C(=O)NCc2cn(C)cn2)[C@H](c2ccccc2Cl)N=C(Nc2nc3ccccc3o2)N1 [Compound 235, (R)-2-(benzo[d]oxazol-2-ylamino)-4-(2-chlorophenyl)-6-methyl-N-((1-methyl-1H-imidazol-4-yl)methyl)-1,4-dihydropyrimidine-5-carboxamide]
>30 | 19.3 | 19.3 | 15.3 | 15.3 | >1227 1 × 10^−6 cm/sec | >67 |  |  |  | CC1=C(C(=O)NCCN(C)C)C(c2ccccc2Cl)N=C(Nc2nc3ccccc3o2)N1 (centres unmarked) [Compound 237]
15.67 | 1.37 |  | 12.2 | 12.2 | 807.7 1 × 10^−6 cm/sec | 24.2 |  |  |  | CC1=C(C(=O)NCc2cnn(C)c2)C(c2ccccc2Cl)N=C(Nc2nc3ccccc3o2)N1 (centres unmarked) [Compound 238, 2-(benzo[d]oxazol-2-ylamino)-4-(2-chlorophenyl)-6-methyl-N-((1-methyl-1H-pyrazol-4-yl)methyl)-1,4-dihydropyrimidine-5-carboxamide]
9.37 |  | 13.7 |  | 19.3 | 42.78 1 × 10^−6 cm/sec | <1 |  |  |  | CC1=C(S(C)(=O)=O)C(c2ccccc2Cl)N=C(Nc2nc3ccccc3o2)N1 (centres unmarked) [Compound 243, N-(4-(2-chlorophenyl)-6-methyl-5-(methylsulfonyl)-1,4-dihydropyrimidin-2-yl)benzo[d]oxazol-2-amine]
 |  |  |  |  | 244.29 1 × 10^−6 cm/sec | <1 | 5.48 | 17.2 | 10.9 | O/N=C1\CCCC2=C1C(c1ccccc1Cl)N=C(Nc1nc3ccccc3o1)N2 (centres unmarked) [Compound 244, (E)-2-(benzo[d]oxazol-2-ylamino)-4-(2-chlorophenyl)-4,6,7,8-tetrahydroquinazolin-5(1H)-one oxime]
 |  |  |  |  | 42.7 1 × 10^−6 cm/sec | <1 | >30 | 5.44 | 17.2 | CC(C)CC1=C(C(=O)Nc2nncs2)C(c2ccccc2Cl)N=C(Nc2nc3ccccc3o2)N1 (centres unmarked) [Compound 248, 2-(benzo[d]oxazol-2-ylamino)-4-(2-chlorophenyl)-6-isobutyl-N-(1,3,4-thiadiazol-2-yl)-1,4-dihydropyrimidine-5-carboxamide]
 |  |  |  |  | 60.3 1 × 10^−6 cm/sec | 2.1 | >30 | 3.85 | 21.7 | O=C(Nc1nncs1)C1=C(c2cnccn2)NC(Nc2nc3ccccc3o2)=NC1c1ccccc1Cl (centres unmarked) [Compound 249, 2-(benzo[d]oxazol-2-ylamino)-4-(2-chlorophenyl)-6-(pyrazin-2-yl)-N-(1,3,4-thiadiazol-2-yl)-1,4-dihydropyrimidine-5-carboxamide]
 |  |  |  |  | 24.6 1 × 10^−6 cm/sec | <1 | >30 | 7.69 | 15.3 | CC(C)C1=C(C(=O)Nc2nncs2)C(c2ccccc2Cl)N=C(Nc2nc3ccccc3o2)N1 (centres unmarked) [Compound 250, 2-(benzo[d]oxazol-2-ylamino)-4-(2-chlorophenyl)-6-isopropyl-N-(1,3,4-thiadiazol-2-yl)-1,4-dihydropyrimidine-5-carboxamide]

SMILES | Metab. Stabil. (m) [1] [m] | IC50 (recombinant human GALK1; [3]) [µM] | IC50 (recombinant human GALK1; [4]) [µM] | IC50 (recombinant mouse GALK1; [5]) [µM] | IC50 (recombinant mouse GALK1; [6]) [µM] | Perm. (1 × 10^−6 cm/sec) (PAMPA permeability) | Sol. [2] [µg/mL] | Metab. Stabil. (m) ([1]; minutes) | IC50 (recombinant human GALK1; [7]) [µM] | IC50 (recombinant mouse GALK1; [8]) [µM]
O=C(Nc1nncs1)C1=C(C(F)(F)F)NC(Nc2nc3ccccc3o2)=NC1c1ccccc1Cl (centres unmarked) [Compound 246, 2-(benzo[d]oxazol-2-ylamino)-4-(2-chlorophenyl)-N-(1,3,4-thiadiazol-2-yl)-6-(trifluoromethyl)-1,4-dihydropyrimidine-5-carboxamide] |  |  |  |  |  | 715.1 1 × 10^−6 cm/sec | 21.9 | >30 | 13.7 | 17.2
